Values joined by “and” are separate entries in the source; they are usually repeats but may differ in a detail not shown here. Identical values can stand only once.
Tests used:
ST1301 ovarian PDX tumor = assay: Response to prexasertib treatment in ovarian PDX tumor model (Example 3); format: in vivo
Source text: (§1) To evaluate whether the provided Response-Predictive Signature can predict response to prexasertib treatment, the predicted response for each PDX model was compared to an experimentally determined response to prexasertib treatment for the same PDX model. The experimentally measured response was quantified as follows: if a treated tumor reduced in size/volume, then the percent regression compared to an initial volume of a treated tumor was provided, if a treated tumor increased in size/volume, then a percent ratio of the treated tumor's growth was divided by control tumor (i.e., untreated tumor) growth (d[T/C]). Negative values for regression percentage indicate response to treatment with prexasertib, while positive values indicate continued growth and non-response to prexasertib treatment. The experimentally measured response was further categorized as complete regression (near −100% regression), partial regression (−50% to −100% regression), stasis (<20% median tumor growth to −50% regression), and growth (>20% median tumor growth).

ST1526 ovarian PDX tumor = assay: as above; format: in vivo
Source text: as §1

ST416 ovarian PDX tumor = assay: as above; format: in vivo
Source text: as §1

ST022 ovarian PDX tumor = assay: as above; format: in vivo
Source text: as §1

ST1949 ovarian PDX tumor = assay: as above; format: in vivo
Source text: as §1

ST255 ovarian PDX tumor = assay: as above; format: in vivo
Source text: as §1

[1] = test system: ST1986B ovarian PDX tumor; assay: as above; format: in vivo
Source text: as §1

ST025 ovarian PDX tumor = assay: as above; format: in vivo
Source text: as §1

T47D = assay: Cell Titer Glo 2.0 relative cell viability, 72 h (Example 10); format: cell-based; conditions: Homo sapiens, T47D cell line, read-out: Abs IC50
Protocol: (§2) The present Example provides experimental evidence that cell lines predicted to be sensitive to a Chk1 inhibitor (e.g., prexasertib, are also sensitive to Wee1 inhibitors (e.g., adavosertib (AZD1775, MK1775) and azenosertib (Zn-C3)). Cell lines were treated with increasing doses of either prexasertib, adavosertib, or azenosertib, and relative cell viability against a DMSO control was assessed 72 h after drug treatment using Cell Titer Glo 2.0 (Promega) and a SpectraMax microplate reader. The results are shown in FIGS. 19A-19C. Error bars represent standard deviations from quadruplicate samples.

A375 = assay: as above; format: cell-based; conditions: Homo sapiens, A-375, A375 cell line, read-out: Abs IC50
Protocol: as §2

[2] = test system: metastatic high-grade serous ovarian cancer; assay: Observed treatment outcome in phase II clinical trials, patients with frozen pre-treatment biopsies (Example 4); format: in vivo, human; design: key to Treatment Result (RECIST): partial response (PR); stable disease (SD); progressive disease (PD)
Protocol: The study was conducted in a blinded, prospectively designed manner on pretreatment tumor biopsies collected from ovarian cancer patients treated in phase 2 trials at the NCI in the past with prexasertib, including a previous single center phase II clinical trial for prexasertib in metastatic high-grade serous ovarian cancer; see Lee et al., Lancet Oncol. 19(2): 207-215 (2018). These past studies were unable to identify predictive biomarkers. To evaluate whether a provided Response-Predictive Signature can successfully predict patient responders, frozen, de-identified sections of pre-treatment tumor biopsies from the phase II clinical trials were obtained. Moreover, they were received without any knowledge about clinical annotation, including response to prexasertib. Each patient tumor biopsy sample was stained using antibodies against three biomarkers and imaged using immunofluorescence microscopy. Biomarker 1 (BM1) was Ser296 phosphorylated Chk1. Biomarker 2 (BM2) was Ser473 phosphorylated Kap1. Biomarker 3 (BM3) was total cyclin E1. Unless otherwise indicated, these were the biomarkers used throughout the Examples.
To evaluate whether the provided Response-Predictive Signature can predict response to prexasertib treatment, the predicted response for each patient was compared to the observed treatment outcomes in the previously conducted phase II clinical trials for the patient (Table 6 and FIGS. 5, 12, and 13). This was done in a blinded manner, with quantitative biomarker scores and clinical annotation provided to a third-party biostatistician and the principal investigator, respectively. Observed treatment outcomes were classified according to RECIST criteria as partial response (PR), stable disease (SD), or progressive disease (PD). […] Additionally, the observed treatment outcome was quantified based on the fractional change in tumor volume after treatment and progression free survival (PFS) (Table 6 and FIGS. 5, 12, and 13).

[3] = test system: head and neck, anal, and ovarian cancer; conditions: cited from earlier work
ST2249 ovarian PDX tumor = assay: Response to prexasertib treatment in ovarian PDX tumor model (Example 3); format: in vivo; design: key to Response type: CR = complete regression; PR = partial regression; S = stasis; G = growth
Source text: as §1

ST1827 ovarian PDX tumor = assay: as above; format: in vivo; design: key to Response type: CR = complete regression; PR = partial regression; S = stasis; G = growth
Source text: as §1

ST2067 ovarian PDX tumor = assay: as above; format: in vivo; design: key to Response type: CR = complete regression; PR = partial regression; S = stasis; G = growth
Source text: as §1

ST260 ovarian PDX tumor = assay: as above; format: in vivo; design: key to Response type: CR = complete regression; PR = partial regression; S = stasis; G = growth
Source text: as §1

ST182B ovarian PDX tumor = assay: as above; format: in vivo; design: key to Response type: CR = complete regression; PR = partial regression; S = stasis; G = growth
Source text: as §1

ST206B ovarian PDX tumor = assay: as above; format: in vivo; design: key to Response type: CR = complete regression; PR = partial regression; S = stasis; G = growth
Source text: as §1

[4] = individual patients predicted non-responder (NR)
[5] = individual patients predicted responder (R)

With `COc1cccc(OCCCN)c1-c1cc(Nc2cnc(C#N)cn2)n[nH]1` [prexasertib, 5-(5-(2-(3-aminopropoxy)-6-methoxyphenyl)-1H-pyrazol-3-ylamino)pyrazine-2-carbonitrile] the Response type (ST1301 ovarian PDX tumor) was “S (S = stasis)”, the “Best d[T/C], or Regression” value (ST1301 ovarian PDX tumor; negative = regression) was 1.2% and the Response type (ST1526 ovarian PDX tumor) was “PR (PR = partial regression)”. For the same compound, the “Best d[T/C], or Regression” value (ST1526 ovarian PDX tumor; negative = regression) was −90%, the Response type (ST416 ovarian PDX tumor) was “S (S = stasis)” and the “Best d[T/C], or Regression” value (ST416 ovarian PDX tumor; negative = regression) was −9%. The Response type (ST022 ovarian PDX tumor) was “G (G = growth)”, the “Best d[T/C], or Regression” value (ST022 ovarian PDX tumor; negative = regression) was 21.1% and the Response type (ST1949 ovarian PDX tumor) was “G (G = growth)”. For the same compound, the “Best d[T/C], or Regression” value (ST1949 ovarian PDX tumor; negative = regression) was 56%, the Response type (ST255 ovarian PDX tumor) was “S (S = stasis)” and the “Best d[T/C], or Regression” value (ST255 ovarian PDX tumor; negative = regression) was −8.9%. The Response type [1] was “G (G = growth)”, the “Best d[T/C], or Regression” value ([1]; negative = regression) was 35.1% and the Response type (ST025 ovarian PDX tumor) was “G (G = growth)”. The “Best d[T/C], or Regression” value (ST025 ovarian PDX tumor; negative = regression) was 48.9%, the IC50 (T47D) was greater than 10000 nM and the IC50 (A375) was 1.8 nM. The “FracShrink (fractional change in tumor volume)” value [2, 4] was 0.109 and 0 and −0.26 and −0.1 and 1.04 and 0.02 and 0.085 and −0.04, the PFS [2, 4] was 70 days and 56 days and 223 days and 104 days and 63 days and 33 days and 62 days and 112 days and the “Treatment Result (RECIST)” value [2, 4] was “SD (4×) and PD (4×)”. For the same compound, the “FracShrink (fractional change in tumor volume)” value [2, 5] was −0.36 and −0.345 and −0.46 and −0.33 and −0.27 and −0.01 (2×) and −0.23 and −0.76 and −0.14 and −0.02 and −0.11 and −0.5 and −0.495 and −0.194, the PFS [2, 5] was 101 days and 402 days and 286 days and 211 days and 392 days and 62 days and 510 days and 602 days and 238 days and 258 days and 140 days and 293 days and 230 days and 112 days and 123 days and the “Treatment Result (RECIST)” value [2, 5] was “PR (7×) and SD (7×) and PD”. The “Response rates in clinical trials” value ([3]; across cancers, including head and neck, anal, and ovarian cancer, single agent) was 5-20%, the Side effects ([3]; patients, reversible, common, hematological, mechanism-based myelosuppression) was “neutropenia, thrombocytopenia, and anemia” and the Response type (ST2249 ovarian PDX tumor) was “CR”. The “Best d[T/C], or Regression” value (ST2249 ovarian PDX tumor; negative = regression) was −100%, the Response type (ST1827 ovarian PDX tumor) was “CR” and the “Best d[T/C], or Regression” value (ST1827 ovarian PDX tumor; negative = regression) was −100%. The Response type (ST2067 ovarian PDX tumor) was “CR”, the “Best d[T/C], or Regression” value (ST2067 ovarian PDX tumor; negative = regression) was −100% and the Response type (ST260 ovarian PDX tumor) was “CR”. For the same compound, the “Best d[T/C], or Regression” value (ST260 ovarian PDX tumor; negative = regression) was −100%, the Response type (ST182B ovarian PDX tumor) was “CR” and the “Best d[T/C], or Regression” value (ST182B ovarian PDX tumor; negative = regression) was −100%. For the same compound, the Response type (ST206B ovarian PDX tumor) was “CR” and the “Best d[T/C], or Regression” value (ST206B ovarian PDX tumor; negative = regression) was −100%.
